# Literature values in patent US8748497B2, “Optimized fluorocarbon emulsions for blood substitutes and other therapeutic uses” (Alliance Pharmaceutical Corp., priority 2006, dated 2014).
# Details: components of FLUOSOL; cited from earlier work
row,Compound,rate constant for RES elimination (k24)
1,"FC1(F)C(F)(F)C(F)(F)C2(F)C(F)(F)C(F)(F)C(F)(F)C(F)(F)C2(F)C1(F)F (centres unmarked) [F-decalin, perfluorodecalin]",0.10 day⁻¹
2,"FC(F)(F)C(F)(F)C(F)(F)N(C(F)(F)C(F)(F)C(F)(F)F)C(F)(F)C(F)(F)C(F)(F)F [F-tripropylamine, perfluorotripropylamine]",0.011 day⁻¹
